Experimental data reported in patent US20260306494A1, “LIQUID AND SOLID COMPOSITIONS OF IMIPRIDONE DERIVATIVES” (INSTITUT GUSTAVE ROUSSY, priority 2023, published 2026).

Tests used:
[1] = physchem; conditions: water, solubility in water
[2] = system: recurrent H3K28M DMG; conditions: human, in vivo; cited from earlier work
[3] = in vivo; cited from earlier work

`Cc1ccccc1CN1C(=O)C2=C(CCN(Cc3ccccc3)C2)N2CCN=C12` [ONC201.2HCl] showed a solubility [1] of 41.4 mg/mL.
For `Cc1ccccc1CN1C(=O)C2=C(CCN(Cc3ccccc3)C2)N2CCN=C12` [ONC201, 7-Benzyl-4-(2-methylbenzyl)-1,2,6,7,8,9-hexahydroimidazo[1,2-a]pyrido[3,4-e]pyrimidin-5 (4H)-one], the response of patients [2] is given as “sustained response”.
For `NC(=O)c1cccnc1` [Nicotinamide], the “NOAEL (No Observed Adverse Effect Level)” value [3] is listed as “around 200 mg/kg bw”.
